Converted amounts (≈) assume the structure as drawn.

In this test the target is T1, MjGCTL (rMjGCTL) (Penaeus japonicus, UniProt A0A1L7MZX5).
T1 construct: gene GCTL; secreted from Drosophila S2 cells (pMT/BiP/V5-His C), V5 and His tags kept, Ni-NTA purified; ~50 kDa, glycosylated; ORF 311 aa, 35 kDa predicted; LDLa domain plus CRD (QAP motif)
T1 sequence (A0A1L7MZX5 17-311): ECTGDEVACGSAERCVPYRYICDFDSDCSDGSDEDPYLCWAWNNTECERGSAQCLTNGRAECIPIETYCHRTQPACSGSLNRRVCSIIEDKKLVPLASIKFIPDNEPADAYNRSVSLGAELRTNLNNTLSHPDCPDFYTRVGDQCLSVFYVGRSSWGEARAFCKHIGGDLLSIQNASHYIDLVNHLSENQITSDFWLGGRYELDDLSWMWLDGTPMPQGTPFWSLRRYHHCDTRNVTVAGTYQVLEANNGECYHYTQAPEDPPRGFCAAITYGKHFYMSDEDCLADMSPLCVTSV
Briefly: inhibition of bacterial agglutination by purified rMjGCTL. In kind it is biochemical. The following applies: V. parahaemolyticus named for Man/Gal/Glc; TBS with 10 mM CaCl2, pH 7, 25 °C; 1 h preincubation; Ca2+-dependent. The source says:
inhibition of bacterial agglutination by purified rMjGCTL on MjGCTL (rMjGCTL)
The molecule `OC[C@H]1OC(O)[C@H](O)[C@@H](O)[C@@H]1O` (stereo partly drawn) [D-glucose] came in with a Minimum inhibitory concentration of 100 mM (≈ 18 mg/mL).
With `C[C@@H]1OC(O)[C@@H](O)[C@H](O)[C@@H]1O` (stereo partly drawn) [Fucose] the figure was 250 mM (≈ 41 mg/mL); with `OC[C@H]1O[C@@H](O[C@H]2[C@H](O)[C@@H](O)C(O)O[C@@H]2CO)[C@H](O)[C@@H](O)[C@H]1O` (stereo partly drawn) [Lactose], 250 mM (≈ 85.6 mg/mL).
The value for `OC[C@H]1O[C@H](O[C@H]2[C@H](O)[C@@H](O)C(O)O[C@@H]2CO)[C@H](O)[C@@H](O)[C@@H]1O` (stereo partly drawn) [Maltose] was 125 mM (≈ 42.8 mg/mL); that for `CC(=O)N[C@H]1C(O)O[C@H](CO)[C@@H](O)[C@@H]1O` (stereo partly drawn) [N-Acetyl-D-glucosamine] was 250 mM (≈ 55.3 mg/mL).
With `OC1OC[C@@H](O)[C@H](O)[C@H]1O` (stereo partly drawn) [Xylose] the figure was 62.5 mM (≈ 9.38 mg/mL).

(Values after paper PMC5379193, “Pathogen recognition of a novel C-type lectin from Marsupenaeus japonicus reveals the divergent sugar-binding specificity of QAP motif” (Scientific Reports, 2017).)
